In test [1] the target is T1, human orexin type 1 receptor (hOX1R) (Homo sapiens, UniProt O43613).
T1 construct: expressed in transfected cells
T1 sequence (O43613 1-425): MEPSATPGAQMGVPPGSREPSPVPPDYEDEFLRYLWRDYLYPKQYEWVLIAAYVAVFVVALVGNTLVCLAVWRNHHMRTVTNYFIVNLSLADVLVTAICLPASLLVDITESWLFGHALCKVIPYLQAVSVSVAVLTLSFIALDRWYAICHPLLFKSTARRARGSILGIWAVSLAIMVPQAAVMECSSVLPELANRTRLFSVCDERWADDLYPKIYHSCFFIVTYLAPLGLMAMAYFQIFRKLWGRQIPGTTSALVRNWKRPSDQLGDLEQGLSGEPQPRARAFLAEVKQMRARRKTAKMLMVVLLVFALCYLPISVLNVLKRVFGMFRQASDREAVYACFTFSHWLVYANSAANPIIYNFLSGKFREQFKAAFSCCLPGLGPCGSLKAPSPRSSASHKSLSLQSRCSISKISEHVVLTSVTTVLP
The test is described as follows: Measurement of orexin type 1 receptor agonist activity (FLIPR TETRA intracellular Ca2+ fluorescence). It is filed as cell-based. Particulars: CHO cells expressing hOX1R; agonist activity, Ca2+ fluorescence; read-out: hOX1 pEC50 (converted). The procedure: (§1) Stable cell line generation. Obtainment of cells stably expressing either human orexin type 2 or human orexin type 1 receptor: to obtain a stable cell line the Orexin receptor cDNA was inserted into pcDNA3.1(+) plasmid vector and clones identified by G418 drug resistance selection. […] A single clone for OX2R—CHO and OX1R—CHO were grown in bulk and frozen to generate a cell bank for routine screening.
(§2) Measurement of orexin type 1 receptor agonist activity. Chinese hamster ovary (CHO) cells expressing human orexin type 1 receptor (hOX1R) were seeded in each well of 384 well black clear bottom plates (BD Flacon) at 10,000 cells per well and cultured for 24 h in an Ham's F12 (Gibco) medium containing 10% fetal calf serum (Sigma Aldrich) under the conditions of 37° C., 5% CO2. After removal of the medium, 50 μL of assay buffer 1 (0.1% bovine serum albumin (Sigma Aldrich), 20 mM HEPES (Molecular Dimensions), […] probenecid (Sigma Aldrich), 1× Calcium 5 dye (Molecular Devices) in Hank's balanced salt solution (Invitrogen)) was added, and the cells were incubated for 60 min under the conditions of 37° C., 5% CO2. A test peptide was dissolved in dimethyl sulfoxide (Sigma Aldrich) to 1 mM, and then diluted with assay buffer 2 (20 mM HEPES, Hank's balanced salt solution, 0.1% bovine serum albumin). For the reaction, a test peptide solution (10 μl) was added using Fluorescent Imaging Plate Reader TETRA (FLIPR TETRA: manufactured by Molecular Devices), a fluorescence value (excitation wavelength 488 nm, measurement wavelength 570 nm) of each well was measured every one second for 2 min, and the agonist activity was determined using the area of the fluorescence value as an indicator of intracellular Ca^2+ concentration. The agonist activity of the test peptide was calculated assuming that the fluorescence value of the well added with only the dilution buffer was 0% and the fluorescence value of the well added with 10 nM human orexin A (Tocris) buffer was 100%. As used herein, Emax indicates the value at 1 μM concentration when orexin A is converted to a full agonist (maximum value of agonist activity: 100%).

The target in test [2] is T2, human orexin type 2 receptor (hOX2R) (Homo sapiens, UniProt O43614).
T2 construct: expressed in transfected cells
T2 sequence (O43614 1-444): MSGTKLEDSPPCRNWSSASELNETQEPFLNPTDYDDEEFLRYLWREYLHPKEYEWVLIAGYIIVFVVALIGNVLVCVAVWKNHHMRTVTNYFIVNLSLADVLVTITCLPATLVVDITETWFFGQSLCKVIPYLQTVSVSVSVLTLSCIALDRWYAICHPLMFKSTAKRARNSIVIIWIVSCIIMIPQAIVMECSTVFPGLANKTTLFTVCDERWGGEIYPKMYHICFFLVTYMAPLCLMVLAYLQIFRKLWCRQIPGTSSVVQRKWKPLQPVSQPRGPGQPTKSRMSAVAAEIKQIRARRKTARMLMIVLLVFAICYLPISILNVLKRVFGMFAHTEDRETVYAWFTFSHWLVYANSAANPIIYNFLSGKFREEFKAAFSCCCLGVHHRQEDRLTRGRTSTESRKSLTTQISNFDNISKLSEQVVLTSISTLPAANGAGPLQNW
The test is described as follows: Measurement of orexin type 2 receptor agonist activity (FLIPR TETRA intracellular Ca2+ fluorescence). It is filed as cell-based. The settings on record: CHO cells expressing hOX2R; agonist activity, Ca2+ fluorescence; read-out: hOX2 pEC50 (converted). The procedure:
as §1
as §2, with “type 2” for “type 1”, “receptor (hOX2R)” for “receptor (hOX1R) were”

SMILES strings stand for the structures. Numbered stars: 1 amine (or outer) side, 2 acyl side, 3 side chain; on linkers, the order of the positions; unused ones are H or OH. Square brackets hold non-standard residues; d marks the D form. Peptide text beside a SMILES is read from it. * marks the point of attachment. X8 = CCCCCC[C@H](NC(=O)[C@@H](NC[C@H](CC(C)C)N*)[C@@H](C)O)C(N)=O; X7 = O=C([C@@H](N[*:1])c1cccc2ccccc12)[*:2]; hArg(Et2) = CCN=C(NCC)NCCCC[C@H](N)C(=O)O; PEG8 = NCCOCCOCCOCCOCCOCCOCCOCCOCCC(=O)O; X1 = O=C(CN(CCc1ccc2ccccc2c1)[*:1])[*:2]; X4 = CN(C)CCOCCOCCOCCOCCOCCOCCC(=O)*; Gly(NCH2CH2Ph) = O=C(O)CNCCc1ccccc1; PEG6 = NCCOCCOCCOCCOCCOCCOCCC(=O)O; Hyp = O=C(O)[C@@H]1C[C@@H](O)CN1; Hpg = N[C@H](C(=O)O)c1ccc(O)cc1; NMeN = CN[C@@H](CC(N)=O)C(=O)O; Aoc(2) = CCCCCC[C@H](N)C(=O)O; PEG4 = NCCOCCOCCOCCOCCC(=O)O; Phg = N[C@H](C(=O)O)c1ccccc1; Cbz = O=C(OCc1ccccc1)*

Consider `CCCCCC[C@H](NC(=O)[C@@H](NC[C@H](CC(C)C)NC(=O)[C@@H](NC(=O)CNC(=O)[C@@H](NC(=O)[C@H](C)NC(=O)[C@@H]1C[C@@H](O)CN1C(=O)[C@H](CC(N)=O)NC(=O)CN(CCc1ccccc1)C(=O)CCOCCOCCOCCOCCOCCOCCN)c1ccccc1)[C@@H](C)CC)[C@@H](C)O)C(N)=O` [Peptide 1] (H-[PEG6][Gly(NCH2CH2Ph)]N[Hyp]A[Phg]GI-X8), for which the EC50 is over 10 nM in test [1] and under 0.1 nM in test [2].

Consider `CCCCCC[C@H](NC(=O)[C@@H](NC(=O)[C@H](CC(C)C)NC(=O)[C@@H](NC(=O)CNC(=O)[C@@H](NC(=O)[C@H](C)NC(=O)[C@@H]1C[C@@H](O)CN1C(=O)[C@H](CC(N)=O)NC(=O)CN(CCc1ccccc1)C(=O)[C@H](CCCNC(=N)N)NC(=O)CCOCCOCCOCCOCCOCCOCCN(C)C)c1ccccc1)[C@@H](C)CC)[C@@H](C)O)C(N)=O` [Peptide 2] (X4-R[Gly(NCH2CH2Ph)]N[Hyp]A[Phg]GILT[Aoc(2)]-NH2), for which the EC50 was 1 to 10 nM in test [1] and under 0.1 nM in test [2].

`CCCCCC[C@H](NC(=O)[C@@H](NC(=O)[C@H](CC(C)C)NC(=O)[C@@H](NC(=O)CNC(=O)[C@@H](NC(=O)[C@H](C)NC(=O)[C@@H]1C[C@@H](O)CN1C(=O)[C@H](CC(N)=O)NC(=O)CN(CCc1ccccc1)C(=O)[C@H](CCCNC(=N)N)NC(=O)CCOCCOCCOCCOCCOCCOCCN)c1ccccc1)[C@@H](C)CC)[C@@H](C)O)C(N)=O` [Peptide 3] (H-[PEG6]R[Gly(NCH2CH2Ph)]N[Hyp]A[Phg]GILT[Aoc(2)]-NH2): the EC50 in test [1] was over 10 nM; in test [2], under 0.1 nM.

For the compound `CCCCCC[C@H](NC(=O)[C@@H](NC(=O)[C@H](CC(C)C)NC(=O)[C@@H](NC(=O)CNC(=O)[C@@H](NC(=O)[C@H](C)NC(=O)[C@@H]1C[C@@H](O)CN1C(=O)[C@H](CC(N)=O)NC(=O)CN(CCc1ccccc1)C(=O)[C@@H](N)CCCCN/C(=N/CC)NCC)c1ccccc1)[C@@H](C)CC)[C@@H](C)O)C(N)=O` [Peptide 4] (H-[hArg(Et2)][Gly(NCH2CH2Ph)]N[Hyp]A[Phg]GILT[Aoc(2)]-NH2), the EC50 in test [1] was over 10 nM; in test [2], under 0.1 nM.

Take `CCCCCC[C@H](NC(=O)[C@@H](NC(=O)[C@H](CC(C)C)NC(=O)[C@@H](NC(=O)CNC(=O)[C@@H](NC(=O)[C@H](C)NC(=O)[C@@H]1C[C@@H](O)CN1C(=O)[C@H](CC(N)=O)NC(=O)CN(CCc1ccccc1)C(=O)[C@H](CCCNC(=N)N)NC(=O)CCOCCOCCOCCOCCN)c1ccccc1)[C@@H](C)CC)[C@@H](C)O)C(N)=O` [Peptide 5] (H-[PEG4]R[Gly(NCH2CH2Ph)]N[Hyp]A[Phg]GILT[Aoc(2)]-NH2): the EC50 was over 10 nM in test [1] and under 0.1 nM in test [2].

Take `CCCCCC[C@H](NC(=O)[C@@H](NC(=O)[C@H](CC(C)C)NC(=O)[C@@H](NC(=O)CNC(=O)[C@@H](NC(=O)[C@H](C)NC(=O)[C@@H]1C[C@@H](O)CN1C(=O)[C@H](CC(N)=O)N(C)C(=O)CN(CCc1ccccc1)C(=O)[C@H](CCCNC(=N)N)NC(=O)CCOCCOCCOCCOCCOCCOCCN)c1ccccc1)[C@@H](C)CC)[C@@H](C)O)C(N)=O` [Peptide 6] (H-[PEG6]R[Gly(NCH2CH2Ph)][NMeN][Hyp]A[Phg]GILT[Aoc(2)]-NH2): the EC50 was over 10 nM in test [1] and under 0.1 nM in test [2].

For the compound `CCCCCC[C@H](NC(=O)[C@@H](NC(=O)[C@H](CC(C)C)NC(=O)[C@@H](NC(=O)CNC(=O)[C@@H](NC(=O)[C@H](C)NC(=O)[C@@H]1C[C@@H](O)CN1C(=O)[C@H](CC(N)=O)NC(=O)CN(CCc1ccccc1)C(=O)[C@@H](N)CCCCN/C(=N/CC)NCC)c1ccc(O)cc1)[C@@H](C)CC)[C@@H](C)O)C(N)=O` [Peptide 7] (H-[hArg(Et2)][Gly(NCH2CH2Ph)]N[Hyp]A[Hpg]GILT[Aoc(2)]-NH2), the EC50 is over 10 nM in test [1] and under 0.1 nM in test [2].

In the case of `CCCCCC[C@H](NC(=O)[C@@H](NC(=O)[C@H](CC(C)C)NC(=O)[C@@H](NC(=O)CNC(=O)[C@@H](NC(=O)[C@H](C)NC(=O)[C@@H]1C[C@@H](O)CN1C(=O)[C@H](CC(N)=O)NC(=O)CN(CCc1ccccc1)C(=O)[C@H](CCCNC(=N)N)NC(=O)CCOCCOCCOCCOCCOCCOCCOCCOCCN)c1ccccc1)[C@@H](C)CC)[C@@H](C)O)C(N)=O` [Peptide 8] (H-[PEG8]R[Gly(NCH2CH2Ph)]N[Hyp]A[Phg]GILT[Aoc(2)]-NH2), the values for the EC50 in test [1] and in test [2] were over 10 nM and under 0.1 nM, respectively.

On to `CCCCCC[C@H](NC(=O)[C@@H](NC(=O)[C@H](CC(C)C)NC(=O)[C@@H](NC(=O)CNC(=O)[C@@H](NC(=O)[C@H](C)NC(=O)[C@@H]1C[C@@H](O)CN1C(=O)[C@H](CC(N)=O)NC(=O)CN(CCc1ccccc1)C(=O)[C@@H](N)CCCCNC(=NCC)NCC)c1cccc2ccccc12)[C@@H](C)CC)[C@@H](C)O)C(N)=O` [Peptide 9] (H-[hArg(Et2)][Gly(NCH2CH2Ph)]N[Hyp]A[X7]GILT[Aoc(2)]-NH2; N-terminus assumed), for which the figures for the EC50 in test [1] and in test [2] were over 10 nM and under 0.1 nM, respectively.

Consider `CCCCCC[C@H](NC(=O)[C@@H](NC(=O)[C@H](CC(C)C)NC(=O)[C@@H](NC(=O)CNC(=O)[C@@H](NC(=O)[C@H](C)NC(=O)[C@@H]1C[C@@H](O)CN1C(=O)[C@H](CC(N)=O)NC(=O)CN(CCc1ccccc1)C(=O)[C@H](CCCCNC(=NCC)NCC)NC(=O)OCc1ccccc1)c1ccccc1)[C@@H](C)CC)[C@@H](C)O)C(N)=O` [Peptide 10] (Cbz-[hArg(Et2)][Gly(NCH2CH2Ph)]N[Hyp]A[Phg]GILT[Aoc(2)]-NH2), for which the EC50 is over 10 nM in test [1] and under 0.1 nM in test [2].

As to `CCCCCC[C@H](NC(=O)[C@@H](NC(=O)[C@H](CC(C)C)NC(=O)[C@@H](NC(=O)CNC(=O)[C@@H](NC(=O)[C@H](C)NC(=O)[C@H](Cc1c[nH]cn1)NC(=O)[C@H](CC(N)=O)NC(=O)CN(CCc1ccc2ccccc2c1)C(=O)[C@@H](N)CCCCNC(=NCC)NCC)c1ccccc1)[C@@H](C)CC)[C@@H](C)O)C(N)=O` [Peptide 11] (H-[hArg(Et2)][X1]NHA[Phg]GILT[Aoc(2)]-NH2; N-terminus assumed), the EC50 in test [1] is 1 to 10 nM; in test [2] it was under 0.1 nM.

The values are drawn from patent US20240360175A1, “PEPTIDE DERIVATIVES AND RELATED USES AS OREXIN AGONISTS” (Centessa Pharmaceuticals (UK) Limited, priority 2021, published 2024).
